In article PMC7053488 (Cell, 2019):

What was measured:
[1] = target: rat P2X7 receptor, rP2X7-ΔBallast (Rattus norvegicus, UniProt Q64663)
[2] = target: T1, rat P2X7 receptor (rP2X7) (Rattus norvegicus, UniProt Q64663); experiment: cryo-EM structure; format: cell-based
T1 sequence (Q64663 1-595): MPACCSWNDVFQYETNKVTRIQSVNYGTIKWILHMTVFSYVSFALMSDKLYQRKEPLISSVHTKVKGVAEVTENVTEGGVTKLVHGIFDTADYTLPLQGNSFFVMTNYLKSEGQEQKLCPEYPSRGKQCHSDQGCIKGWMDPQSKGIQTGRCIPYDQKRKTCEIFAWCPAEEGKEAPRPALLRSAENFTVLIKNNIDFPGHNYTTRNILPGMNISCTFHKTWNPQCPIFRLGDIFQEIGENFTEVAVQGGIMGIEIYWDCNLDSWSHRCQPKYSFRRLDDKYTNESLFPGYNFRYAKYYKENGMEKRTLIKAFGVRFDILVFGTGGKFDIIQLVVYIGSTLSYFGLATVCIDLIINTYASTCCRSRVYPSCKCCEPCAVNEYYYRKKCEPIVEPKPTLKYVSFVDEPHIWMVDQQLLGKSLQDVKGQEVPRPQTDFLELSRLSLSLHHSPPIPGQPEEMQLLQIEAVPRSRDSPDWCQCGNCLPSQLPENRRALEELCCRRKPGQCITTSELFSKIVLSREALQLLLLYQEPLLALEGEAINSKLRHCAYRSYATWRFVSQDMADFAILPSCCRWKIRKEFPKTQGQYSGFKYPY

[3] = target: T1, rat P2X7 receptor (rP2X7); experiment: SPA competition with 3H-GDP; format: binding
[4] = target: T1, rat P2X7 receptor (rP2X7); experiment: cryo-EM structure; format: binding

SMILES | Ki [3] [µM] | further results
Nc1ncnc2c1ncn2[C@@H]1O[C@H](COP(=O)(O)OP(=O)(O)OP(=O)(O)O)[C@@H](O)[C@H]1O [ATP] | – | EC50 [1]: 52 ± 11 µM; EC50 [2]: 42 ± 3 µM
Nc1nc2c(ncn2[C@@H]2O[C@H](COP(=O)(O)OP(=O)(O)O)[C@@H](O)[C@H]2O)c(=O)[nH]1 [GDP] | – | Kd [4]: 40 ± 10 nM
Nc1nc2c(ncn2[C@@H]2O[C@H](COP(=O)(O)OP(=O)(O)OP(O)(O)=S)[C@@H](O)[C@H]2O)c(=O)[nH]1 [GTP-γ-S] | 0.1 ± 0.01 | –

More lines, main results first:

Ki [3] [µM] | SMILES | further results
130 ± 3 | Nc1ccn([C@@H]2O[C@H](COP(=O)(O)OP(=O)(O)OP(=O)(O)O)[C@@H](O)[C@H]2O)c(=O)n1 [CTP] | –
0.15 ± 0.015 | Nc1nc2c(ncn2[C@@H]2O[C@H](COP(=O)(O)OP(=O)(O)OP(=O)(O)O)[C@@H](O)[C@H]2O)c(=O)[nH]1 [GTP] | –
60 ± 10 | O=c1ccn([C@@H]2O[C@H](COP(=O)(O)OP(=O)(O)OP(=O)(O)O)[C@@H](O)[C@H]2O)c(=O)[nH]1 [UTP] | –
